The values that follow are results of earlier work, collected in patent EP3338772A1, “[…] COMPOSITIONS STABILIZED BY HYDROXYCARBOXYLIC ACIDS , THE PRODUCTION THEREOF AND HIGHLY CONCENTRATED MAGNESIUM COMPOSITIONS” (Merz Pharma GmbH & Co. KGaA, priority 2016, dated 2018).

Like-named read-outs stand apart in the source and are kept apart here.

The conditions of data set [1]: water.

As for Calcium-Magnesium-Lactat-Citrat-Komplex, in data set [1], the “Löslichkeit in Wasser, Calcium” value is 900 mg/L and the “Löslichkeit in Wasser, Magnesium” value is given as 300 mg/L. In the case of “Trimagnesiumdicitrat*Nonahydrat (C12H10O14Mg3*9H2O)”, the Löslichkeit (25 °C) is listed as 18,14 g(Mg^2+)kg^-1H2O.

Turning to “Trimagnesiumdicitrat*Tetradecanhydrat (C12H10O14Mg3*14H2O)”, for the setting “22 °C”, the Löslichkeit was 19,40 g(Mg^2+)kg^-1H2O. Further, the “maximale Magnesium-Konzentration” value (Raumtemperatur, without hydroxycarboxylic acid) is 19,40 g(Mg^2+) kg^-1 (Wasser).
